Calls of active or inactive are those of the source. The calls are words filed in the database; no cut-off is given here.
Assays:
[1] = molecular target: T1, Microsomal triglyceride transfer protein large subunit (Bos taurus, UniProt P55156); experiment: Inhibitory activity against microsomal triglyceride transfer protein (MTP)
T1 sequence (P55156 whole entry): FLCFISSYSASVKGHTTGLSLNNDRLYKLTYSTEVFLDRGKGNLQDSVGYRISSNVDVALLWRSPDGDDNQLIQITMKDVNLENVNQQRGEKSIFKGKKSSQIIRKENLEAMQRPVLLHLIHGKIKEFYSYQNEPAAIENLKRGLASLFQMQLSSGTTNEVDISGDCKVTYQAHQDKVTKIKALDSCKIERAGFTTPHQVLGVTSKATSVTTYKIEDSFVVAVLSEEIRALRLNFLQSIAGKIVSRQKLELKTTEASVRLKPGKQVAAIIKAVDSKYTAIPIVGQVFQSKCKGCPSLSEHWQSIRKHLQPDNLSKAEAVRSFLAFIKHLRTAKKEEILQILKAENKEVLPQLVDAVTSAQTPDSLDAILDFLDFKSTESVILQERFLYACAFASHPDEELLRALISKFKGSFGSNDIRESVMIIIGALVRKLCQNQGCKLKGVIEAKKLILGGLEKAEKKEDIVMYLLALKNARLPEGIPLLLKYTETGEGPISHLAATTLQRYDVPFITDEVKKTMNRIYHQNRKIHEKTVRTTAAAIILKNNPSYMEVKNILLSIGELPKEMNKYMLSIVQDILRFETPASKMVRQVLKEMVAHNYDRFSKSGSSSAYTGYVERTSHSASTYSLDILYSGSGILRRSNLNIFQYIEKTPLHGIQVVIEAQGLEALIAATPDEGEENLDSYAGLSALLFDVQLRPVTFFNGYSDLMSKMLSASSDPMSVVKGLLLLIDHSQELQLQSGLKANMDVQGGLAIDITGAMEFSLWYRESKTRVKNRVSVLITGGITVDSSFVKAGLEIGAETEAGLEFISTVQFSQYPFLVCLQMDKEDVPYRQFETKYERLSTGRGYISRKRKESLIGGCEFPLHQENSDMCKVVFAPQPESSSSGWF

HepG2 [2] = experiment: Effective concentration against apolipoprotein B (ApoB) from HepG2 cell using apolipoprotein secretion assay; assay type: functional, cell-based; conditions: Homo sapiens
HepG2 [3] = experiment: Effective concentration against apolipoprotein A1 (ApoA1) from HepG2 cell using apolipoprotein secretion assay; assay type: functional, cell-based; conditions: Homo sapiens
Cricetinae gen. sp. [4] = experiment: Inhibitory activity against plasma cholesterol level after oral administration (15 mg/kg/day) over 3 days in hamsters; assay type: functional, Cricetulus griseus
HepG2 [5] = experiment: Effective concentration against secretion of apolipoprotein B (ApoB) from HepG2 cell using apolipoprotein secretion assay; assay type: functional, cell-based; conditions: Homo sapiens
HepG2 [6] = experiment: Effective concentration against secretion of apolipoprotein A1 (ApoA1) from HepG2 cell using apolipoprotein secretion assay; assay type: functional, cell-based; conditions: Homo sapiens
Rattus norvegicus [7] = experiment: Inhibitory activity (25 mg/kg) against hepatic lipoprotein secretion; assay type: functional
Rattus norvegicus [8] = experiment: Effective dose for inhibition of lipoprotein production (in vivo) after intravenous administration using fasted triton rat assay; assay type: functional
Rattus norvegicus [9] = experiment: Ability to inhibit lipoprotein production (in vivo) after oral administration (50 mg/kg) using fasted triton rat assay;IA: inactive; assay type: functional, organism-based
Rattus norvegicus [10] = experiment: Effective dose for inhibition of lipoprotein production (in vivo) after oral administration using fasted triton rat assay; assay type: functional
Cricetinae gen. sp. [11] = experiment: Inhibitory activity against plasma cholesterol level after oral administration (qd) (100 mg/kg) for 3 days in hamsters; assay type: functional, Cricetulus griseus
Cricetinae gen. sp. [12] = experiment: Inhibitory activity against plasma cholesterol level after oral administration (15 mg/kg/day) in hamsters; assay type: functional, Cricetulus griseus

Compound	IC50 [1] [µM]	other results
O=C(NCC(F)(F)F)C1(CCCCP(=O)(OCc2ccncc2)OCc2ccncc2)c2ccccc2-c2ccccc21	0.085	
CCCCOP(=O)(CCCSc1nc(-c2ccccc2)c(-c2ccccc2)o1)OCCCC	6	
O=C(NC1CCN(CCCC2(C(=O)NCC(F)(F)F)c3ccccc3-c3ccccc32)CC1)c1ccccc1	0.23	EC50 (HepG2 [2]): 0.08 µM; EC50 (HepG2 [3]): > 3.3 µM
Cc1cccc(COP(=O)(CCCCC2(C(=O)NCC(F)(F)F)c3ccccc3-c3ccccc32)OCc2cccc(C)n2)n1	0.011	Inhibition (Cricetinae gen. sp. [4]): 35%
O=C(NCC(F)(F)F)C1(CCCCP(=O)(OCCc2ccccn2)OCCc2ccccn2)c2ccccc2-c2ccccc21	0.04	
CCCCOP(=O)(CCCCC1(C(=O)NCc2ccccc2)c2ccccc2-c2ccccc21)OCCCC	0.25	EC50 (HepG2 [5]): 0.058 µM; EC50 (HepG2 [6]): > 1 µM
CCCCOP(=O)(CCCSc1nc2ccc(OCC)cc2n1C)OCCCC	6	
O=C(NCC(F)(F)F)C1(CCCCP(=O)(OCc2ccccn2)OCc2ccccn2)c2ccccc2-c2ccccc21	0.027	
CCCCOP(=O)(CCCSc1nc2ccc(OCC)cc2o1)OCCCC	5	
CC(C)(C)COP(=O)(CCCCC1(C(=O)NCC(F)(F)F)c2ccccc2-c2ccccc21)OCC(C)(C)C	0.033	
CCOP(=O)(CCCCC1(C(=O)NCC(F)(F)F)c2ccccc2-c2ccccc21)OCC	0.145	
CCCCOP(=O)(CCCCC1(C(=O)NCCc2ccc(OC)cc2)c2ccccc2-c2ccccc21)OCCCC	0.021	EC50 (HepG2 [5]): 0.023 µM; EC50 (HepG2 [6]): > 0.33 µM; Inhibition (Rattus norvegicus [7]): 15%
C=CCC1(C(=O)NCC)c2ccccc2-c2ccccc21	2.2	
CCCCOP(=O)(CCCCC1(C(=O)OC)c2ccccc2-c2ccccc21)OCCCC	0.45	
CC(C)OP(=O)(CCCCC1(C(=O)NCC(F)(F)F)c2ccccc2-c2ccccc21)OC(C)C	0.28	
CCCCOP(=O)(CCCCC1(C(=O)NCCN2CCOCC2)c2ccccc2-c2ccccc21)OCCCC	0.5	
CCCCOP(=O)(CCCCC1(C(=O)NCCC)c2ccccc2-c2ccccc21)OCCCC	0.014	EC50 (HepG2 [5]): 0.1 µM; ED30 (Rattus norvegicus [8]): 15 mg/kg; EC50 (HepG2 [6]): 8 µM; Activity (Rattus norvegicus [9]): inactive
CCCCOP(=O)(CCCSc1nc(-c2ccccc2)c(-c2ccccc2)[nH]1)OCCCC	> 30	
CCCCOP(=O)(CCCSc1ccncc1)OCCCC	27	
CCCCNC(=O)C1(CCCCP(=O)(OCCCC)OCCCC)c2ccccc2-c2ccccc21	0.4	

Compound	IC50 [1] [µM]	other results
CCCCOP(=O)(CCCCC1(C(=O)NCC(F)(F)F)c2ccccc2-c2ccccc21)OCCCC	0.022	ED30 (Rattus norvegicus [10]): 8 mg/kg; EC50 (HepG2 [5]): 0.007 µM; ED30 (Rattus norvegicus [8]): 4 mg/kg; Inhibition (Cricetinae gen. sp. [11]): 15%; EC50 (HepG2 [6]): > 3.3 µM
CCCNC(=O)C1(CCCCP(=O)(OCC)OCC)c2ccccc2-c2ccccc21	0.135	
CCCCOP(=O)(CCCCSc1nc2ccc(OCC)cc2s1)OCCCC	12	
O=C(NCC(F)(F)F)C1(CCCCP(=O)(OCCCc2ccccn2)OCCCc2ccccn2)c2ccccc2-c2ccccc21	0.025	Inhibition (Cricetinae gen. sp. [12]): 15%
CCCCOP(=O)(CCCOc1cccc2ccccc12)OCCCC	30	
O=C(NCC(F)(F)F)C1(CCCCP(=O)(OCc2cccnc2)OCc2cccnc2)c2ccccc2-c2ccccc21	0.024	
CCCCOP(=O)(CCCCC1(C(=O)NCc2ccc(N)cc2)c2ccccc2-c2ccccc21)OCCCC	0.89	
CCCCOP(=O)(CCCCCC1(C(=O)NCC(F)(F)F)c2ccccc2-c2ccccc21)OCCCC	0.065	
CC(C)COP(=O)(CCCCC1(C(=O)NCC(F)(F)F)c2ccccc2-c2ccccc21)OCC(C)C	0.055	
CCCOP(=O)(CCCCC1(C(=O)NCC(F)(F)F)c2ccccc2-c2ccccc21)OCCC	0.09	
CCCCOP(=O)(CCCCC1(C(=O)NCc2ccccn2)c2ccccc2-c2ccccc21)OCCCC	0.47	
CCCCOP(=O)(CCCSc1cccs1)OCCCC	> 100	
CCCCOP(=O)(CCCCCCC1(C(=O)NCC(F)(F)F)c2ccccc2-c2ccccc21)OCCCC	0.045	
Cc1cccc(CCCOP(=O)(CCCCC2(C(=O)NCC(F)(F)F)c3ccccc3-c3ccccc32)OCCCc2cccc(C)n2)n1	0.045	
CCCCOP(=O)(CCCSc1nc2ccc(OCC)cc2s1)OCCCC	4.5	EC50 (HepG2 [2]): 3.9 µM; EC50 (HepG2 [3]): 13.2 µM
O=C1c2ccccc2CN1C1CCN(CCC(c2ccccc2)c2ccccc2)CC1	2.2	
CCCCOP(=O)(CCCSc1nc2cc(OCC)ccc2[nH]1)OCCCC	10	
CCCCOP(=O)(CCCOc1ccccc1)OCCCC	4.8	
CCCCOP(=O)(CCCCCSc1nc2ccc(OCC)cc2s1)OCCCC	6	
